Tested on: APOE4 mice
Assay: Barnes maze (spatial learning and memory) after doxorubicin treatment in APOE4 mice
Format: in vivo, mouse
Details: female APOE4 mice
Method: A study was conducted to evaluate the effects of RAGE inhibition on preventing CRCD. The study was performed using a mouse model of C57BL/6 J mice having the human APOE4 allele in the mouse APOE gene locus.
In the study, 24 female APOE mice were divided evenly into three treatment groups: Group 1, which received a vehicle control; Group 2, which received doxorubicin, a chemotherapy medication used to treat a variety of cancers that include breast cancer, bladder cancer, Kaposi's sarcoma, lymphoma, and acute lymphocytic leukemia; and Group 3, which received doxorubicin and FPS-ZM1, RAGE antagonist. Groups 2 and 3 were administered the doxorubicin as two doses of 5 mg/kg, separated by one week. Group 3 was administered 2 mg/kg of FPS-ZMI twice per week by intraperitoneal injection starting one week before the first administration of doxorubicin and continuing throughout the study.
Four weeks after doxorubicin treatment (or the vehicle control) was completed, mice were analyzed for hippocampal based memory via the Barnes maze (San Diego Instruments Inc., San Diego, CA). […] The apparatus was captured by overhead video and assessed using ANY-maze™ software. […]
The time to identify the correct (escape) hole on the final day is compared between groups. Primary latency, defined as the time for the mouse to make a first nose poke into the escape hole, was assessed. […]

Row | primary latency (time to first nose poke into the escape hole) (Group 2: doxorubicin two doses of 5 mg/kg one week apart, Barnes maze training day 4, four weeks after doxorubicin, Group 1 control 24.6 seconds) [s] | Structure (SMILES) | primary latency (latency to identify the escape hole) (Group 3: doxorubicin two doses of 5 mg/kg plus FPS-ZM1 2 mg/kg intraperitoneal twice per week from one week before doxorubicin, training day 4, p=0.12 vs Group 2) [s]
1 |  | O=C(c1ccc(Cl)cc1)N(Cc1ccccc1)C1CCCCC1 [FPS-ZMI] | 28.0
2 | 58.2 | COc1cccc2c1C(=O)c1c(O)c3c(c(O)c1C2=O)C[C@@](O)(C(=O)CO)C[C@@H]3O[C@H]1C[C@H](N)[C@H](O)[C@H](C)O1 [doxorubicin] | 

From patent publication US20240226065A1, “USE OF RAGE INHIBITORS TO TREAT CANCER-RELATED COGNITIVE DECLINE” (Georgetown University, priority 2021, published 2024)
